Experiment: Clinical study: effect of i.v. administration of ivabradine hydrochloride on heart rate in healthy volunteers
Type: in vivo
Conditions: i.v. bolus of ivabradine hydrochloride solution containing 16 mg ivabradine base, resting heart rate (lying position) at T0+30 min, vs placebo control group
Method: Clinical Study. Effect of i.v. Administration of Ivabradine Hydrochloride on Heart Rate in Healthy Volunteers.
Resting heart rate (in a lying position) is measured at T0. The subjects are then given an i.v. bolus of a solution of ivabradine hydrochloride containing 16 mg of ivabradine base (treated group, n=8) or of placebo (control group, n=2). The resting heart rate (in a lying position) is again measured at T0+30 min.

COc1cc2c(cc1OC)CC(=O)N(CCCN(C)C[C@H]1Cc3cc(OC)c(OC)cc31)CC2 [ivabradine]
heart rate lower than the heart rate in the control group: 16%
